{"source": "patent US20260297060A1", "about": "“COMPOUNDS FOR THE DEGRADATION OF MUTANT BRAF” (C4 THERAPEUTICS, INC., priority 2023, published 2026)", "system": "A375 human melanoma xenografts", "test": "In vivo therapeutic efficacy in A375 human melanoma xenografts (tumor volume, T/C, TGI), Example 14", "parameters": "species or system human tumor in female BALB/c nude mice", "conditions": "for T/C / TGI: PG-D21", "method": "Agents were tested in the A375 human melanoma xenografts. Compound 26 and Compound 141 were administered to BALB/c nude mice bearing A375 tumors from PG-DO and dosed via PO twice a day (BID) or third a day (TIP) or dosed P daily (QD) from PG-D. Dabrafenib was administered to BALB/c nude mice bearing A375 tumors from PG-D1 and dosed via P daily (QD). Compound 26 was dosed at 1.5 mg/kg (QD), 2 mg/kg (TID), 3 mg/kg (BID), 6 mg/kg (QD) and 10 mg/kg (BID) for 21 days. Compound 141 was dosed at 0.75 mg/kg (BID), 1 mg/kg (TID), 1.5 mg/kg (BID), 3 mg/kg (QD) and 5 mg/kg (BID) for 21 days. Dabrafenib was dosed at 100 mg/kg for 21 days. This study was non-GLP.\nOne hundred and thirty-eight female BALB/c nude Mus Musculus mice procured from Shanghai Lingchang Biological Science and Technology Co., LTD between the ages of six to eight weeks and with body weight between eighteen and twenty-two grams were used for the study. A spare mouse was also procured.\nThe A375 tumor cells were maintained in vitro in DMEM medium supplemented with 10% fetal bovine serum and 1% Penicillin-Streptomycin at 37° C. in an atmosphere of 5% CO2 in air. The tumor cells were routinely sub-cultured twice weekly. The cells growing in an exponential growth phase were harvested and counted for tumor inoculation.\nEach mouse was inoculated subcutaneously at the right flank with A375 cells (5×10^6) in 0.2 mL of PBS supplemented with Matrigel (PBS: Matrigel=1:1) for tumor development. Animals were grouped for efficacy study on day 15 after tumor inoculation when the average tumor volume reached 220 mm^3. The test articles administration and the animal numbers in each group are shown in the above experimental Table 75.\nAt the time of routine monitoring, the animals were checked daily for any effects of tumor growth and treatments on normal behavior such as mobility, food and water consumption (by looking only), body weight gain/loss (body weights were measured twice weekly), eye/hair matting and any other abnormal effect as stated in the protocol. Death and observed clinical signs were recorded on the basis of the numbers of animals within each subset.\nPrior to the onset of drug treatment, mice were measured for tumor size in two dimensions using a caliper, and the tumor volume (mm^3) was calculated using formula V=0.5 a×b^2 where a and b are the long and short diameters of the tumor in mm, respectively. Mice were randomized into different treatment groups based on the tumor volume.\nThe major endpoint was to see if the tumor growth could be delayed or mice could be cured. The tumor size was then used for calculations of T/C value. The T/C value (in percent) is an indication of antitumor effectiveness; T and C are the mean volumes of the treated and control groups, respectively on specified day.\nTGI was calculated for each group using the formula: TGI (%)=[1−(Ti−T0)/(Ci−C0)]×100; Ti is the average tumor volume of a treatment group on a given day, T0 is the average tumor volume of the treatment group on the day of treatment start, Ci is the average tumor volume of the vehicle control group on the same day with Ti, and C0 is the average tumor volume of the vehicle group on the day of treatment start.\nA one-way ANOVA followed by Dunnett's multiple comparison test was performed to compare tumor volume among vehicle group (Group 1) and treatment groups (Group 2-Group 12). All data were analyzed using GraphPad Prism, ns indicates p>0.05, * indicates p<0.05, ** indicates p<0.01, *** indicates p<0.001 and **** indicates p<0.0001.\nTumor growth inhibition of Compound 26, Compound 141 and dabrafenib in the treatment of female BALB/c nude mice bearing A375 xenografts was calculated based on tumor volume measured on […]. TGI and T/C were calculated respectively and the data are detailed in Table 82.", "key": {"[1]": {"conditions": "Compound 141, 1.5 mg/kg p.o. BID × 21 days"}}}
{"smiles": "CCN(C)S(=O)(=O)Nc1ccc(F)c(Oc2ccc3ncn(C4CC5(CCN(C6CC7(C6)CN(c6cc8c(cc6F)c(N6CCC(=O)NC6=O)nn8C)C7)CC5)C4)c(=O)c3c2)c1C#N", "note": "(stereo not drawn) [Compound 141, 6-[2-cyano-3-[[ethyl(methyl)sulfamoyl]amino]-6-fluoro-phenoxy]-3-[7-[2-[3-(2,4-dioxohexahydropyrimidin-1-yl)-5-fluoro-1-methyl-indazol-6-yl]-2-azaspiro[3.3]heptan-6-yl]-7-azaspiro[3.5]nonan-2-yl]-4-oxo-quinazoline]", "values": [{"measurement": "Tumor volume", "setting": "1.5 mg/kg p.o. BID x 21 days, day 35 (dosing-free regrowth), mean ± SEM", "value": "1374 ± 116", "unit": "mm^3"}, {"measurement": "Tumor volume", "setting": "1.5 mg/kg p.o. BID x 21 days, day 39 (dosing-free regrowth), mean ± SEM", "value": "1709 ± 117", "unit": "mm^3"}, {"measurement": "Tumor volume", "setting": "1.5 mg/kg p.o. BID x 21 days, day 42 (dosing-free regrowth), mean ± SEM", "value": "2051 ± 177", "unit": "mm^3"}, {"measurement": "Tumor volume", "setting": "1.5 mg/kg p.o. BID x 21 days, day 46 (dosing-free regrowth), mean ± SEM", "value": "2593 ± 258", "unit": "mm^3"}, {"measurement": "Tumor volume", "setting": "1.5 mg/kg p.o. BID x 21 days, day 49 (dosing-free regrowth), mean ± SEM", "value": "2727 ± 382", "unit": "mm^3"}, {"measurement": "Tumor volume", "setting": "1.5 mg/kg p.o. BID x 21 days, day 53 (dosing-free regrowth), mean ± SEM", "value": "3079 ± 78", "unit": "mm^3"}, {"measurement": "Tumor volume", "setting": "3 mg/kg p.o. QD x 21 days, day 0, mean ± SEM", "value": "220 ± 15", "unit": "mm^3"}, {"measurement": "Tumor volume", "setting": "3 mg/kg p.o. QD x 21 days, day 4, mean ± SEM", "value": "253 ± 15", "unit": "mm^3"}, {"measurement": "Tumor volume", "setting": "3 mg/kg p.o. QD x 21 days, day 7, mean ± SEM", "value": "214 ± 17", "unit": "mm^3"}, {"measurement": "Tumor volume", "setting": "3 mg/kg p.o. QD x 21 days, day 11, mean ± SEM", "value": "169 ± 15", "unit": "mm^3"}, {"measurement": "Tumor volume", "setting": "3 mg/kg p.o. QD x 21 days, day 14, mean ± SEM", "value": "144 ± 16", "unit": "mm^3"}, {"measurement": "Tumor volume", "setting": "3 mg/kg p.o. QD x 21 days, day 18, mean ± SEM", "value": "172 ± 19", "unit": "mm^3"}, {"measurement": "Tumor volume", "setting": "3 mg/kg p.o. QD x 21 days, day 21, mean ± SEM", "value": "208 ± 30", "unit": "mm^3"}, {"measurement": "Tumor volume", "setting": "3 mg/kg p.o. QD x 21 days, day 25 (dosing-free regrowth), mean ± SEM", "value": "486 ± 63", "unit": "mm^3"}, {"measurement": "Tumor volume", "setting": "3 mg/kg p.o. QD x 21 days, day 28 (dosing-free regrowth), mean ± SEM", "value": "773 ± 63", "unit": "mm^3"}, {"measurement": "Tumor volume", "setting": "3 mg/kg p.o. QD x 21 days, day 32 (dosing-free regrowth), mean ± SEM", "value": "985 ± 85", "unit": "mm^3"}, {"measurement": "Tumor volume", "setting": "3 mg/kg p.o. QD x 21 days, day 35 (dosing-free regrowth), mean ± SEM", "value": "1339 ± 71", "unit": "mm^3"}, {"measurement": "Tumor volume", "setting": "3 mg/kg p.o. QD x 21 days, day 39 (dosing-free regrowth), mean ± SEM", "value": "1690 ± 103", "unit": "mm^3"}, {"measurement": "Tumor volume", "setting": "3 mg/kg p.o. QD x 21 days, day 42 (dosing-free regrowth), mean ± SEM", "value": "2099 ± 177", "unit": "mm^3"}, {"measurement": "Tumor volume", "setting": "3 mg/kg p.o. QD x 21 days, day 46 (dosing-free regrowth), mean ± SEM", "value": "2737 ± 176", "unit": "mm^3"}, {"measurement": "Tumor volume", "setting": "3 mg/kg p.o. QD x 21 days, day 49 (dosing-free regrowth), mean ± SEM", "value": "3078 ± 168", "unit": "mm^3"}, {"measurement": "Tumor volume", "setting": "3 mg/kg p.o. QD x 21 days, day 53 (dosing-free regrowth)", "value": 3659, "unit": "mm^3"}, {"measurement": "Tumor Size on PG-D21 (Mean ± SEM)", "setting": "3 mg/kg p.o. QD × 21 days", "value": "208 ± 30", "unit": "mm^3"}, {"measurement": "T/C", "setting": "3 mg/kg p.o. QD × 21 days", "value": 11.0, "unit": "%"}, {"measurement": "TGI", "setting": "3 mg/kg p.o. QD × 21 days", "value": 100.8, "unit": "%"}, {"measurement": "Tumor volume", "setting": "5 mg/kg p.o. BID x 21 days, day 0, mean ± SEM", "value": "220 ± 15", "unit": "mm^3"}, {"measurement": "Tumor volume", "setting": "5 mg/kg p.o. BID x 21 days, day 4, mean ± SEM", "value": "166 ± 11", "unit": "mm^3"}, {"measurement": "Tumor volume", "setting": "5 mg/kg p.o. BID x 21 days, day 7, mean ± SEM", "value": "100 ± 7", "unit": "mm^3"}, {"measurement": "Tumor volume", "setting": "5 mg/kg p.o. BID x 21 days, day 11, mean ± SEM", "value": "60 ± 4", "unit": "mm^3"}, {"measurement": "Tumor volume", "setting": "5 mg/kg p.o. BID x 21 days, day 14, mean ± SEM", "value": "38 ± 2", "unit": "mm^3"}, {"measurement": "Tumor volume", "setting": "5 mg/kg p.o. BID x 21 days, day 18, mean ± SEM", "value": "27 ± 3", "unit": "mm^3"}, {"measurement": "Tumor volume", "setting": "5 mg/kg p.o. BID x 21 days, day 21, mean ± SEM", "value": "23 ± 3", "unit": "mm^3"}, {"measurement": "Tumor volume", "setting": "5 mg/kg p.o. BID x 21 days, day 25 (dosing-free regrowth), mean ± SEM", "value": "31 ± 9", "unit": "mm^3"}, {"measurement": "Tumor volume", "setting": "5 mg/kg p.o. BID x 21 days, day 28 (dosing-free regrowth), mean ± SEM", "value": "56 ± 24", "unit": "mm^3"}, {"measurement": "Tumor volume", "setting": "5 mg/kg p.o. BID x 21 days, day 32 (dosing-free regrowth), mean ± SEM", "value": "109 ± 40", "unit": "mm^3"}, {"measurement": "Tumor volume", "setting": "5 mg/kg p.o. BID x 21 days, day 35 (dosing-free regrowth), mean ± SEM", "value": "190 ± 67", "unit": "mm^3"}, {"measurement": "Tumor volume", "setting": "5 mg/kg p.o. BID x 21 days, day 39 (dosing-free regrowth), mean ± SEM", "value": "345 ± 111", "unit": "mm^3"}, {"measurement": "Tumor volume", "setting": "5 mg/kg p.o. BID x 21 days, day 42 (dosing-free regrowth), mean ± SEM", "value": "484 ± 147", "unit": "mm^3"}, {"measurement": "Tumor volume", "setting": "5 mg/kg p.o. BID x 21 days, day 46 (dosing-free regrowth), mean ± SEM", "value": "732 ± 181", "unit": "mm^3"}, {"measurement": "Tumor volume", "setting": "5 mg/kg p.o. BID x 21 days, day 49 (dosing-free regrowth), mean ± SEM", "value": "1015 ± 308", "unit": "mm^3"}, {"measurement": "Tumor volume", "setting": "5 mg/kg p.o. BID x 21 days, day 53 (dosing-free regrowth), mean ± SEM", "value": "1470 ± 351", "unit": "mm^3"}, {"measurement": "Tumor volume", "setting": "5 mg/kg p.o. BID x 21 days, day 56 (dosing-free regrowth), mean ± SEM", "value": "1433 ± 181", "unit": "mm^3"}, {"measurement": "Tumor Size on PG-D21 (Mean ± SEM)", "setting": "5 mg/kg p.o. BID × 21 days", "value": "23 ± 3", "unit": "mm^3"}, {"measurement": "T/C", "setting": "5 mg/kg p.o. BID × 21 days", "value": 1.2, "unit": "%"}, {"measurement": "TGI", "setting": "5 mg/kg p.o. BID × 21 days", "value": 111.8, "unit": "%"}, {"measurement": "Tumor Size on PG-D21 (Mean ± SEM)", "setting": "[1]", "value": "208 ± 21", "unit": "mm^3"}, {"measurement": "T/C", "setting": "[1]", "value": 11.1, "unit": "%"}, {"measurement": "TGI", "setting": "[1]", "value": 100.7, "unit": "%"}]}
